The text below walks through data of US7605168B2 (Plexxikon, Inc., priority 2004, dated 2009).

Holding throughout (assay type): biochemical
Experiment [1] concerns the target T1, PDE4B: catalytic domain of human PDE4B from S152-S528 (Homo sapiens, UniProt Q07343).
T1 construct: The catalytic domain of human PDE4B from S152-S528; His6 (N, cleaved yes); thrombin cleavage site (N, cleaved yes); made in house; host or cells: E. coli BL21 (DE3) RIL
Put plainly: PDE4 IC50 determination by Scintillation Proximity Assay (SPA), PDE4B catalytic domain. The note with it: [3H]cAMP SPA, 30 min at 30° C. The method, then: (§1) IC50s were determined by Scintillation Proximity Assay (SPA). The principle of the assay is based on the fact that cAMP, the PDE4 substrate, binds weakly to Yittrium Silicate SPA beads, whereas AMP, the product of PDE4 hydrolysis binds strongly. Thus, the extent of PDE4 hydrolysis of a sample of [^3H]cAMP can be measured because only the [^3H]AMP produced by PDE4 hydrolysis will bind to the SPA beads and produce a scintillation signal.
Enzyme was stored in 50% glycerol at −20°.
(§2) In addition to the compound dilutions, each assay plate contained control wells with 1 μl of DMSO (to define 0% enzyme inhibition) or 1 μl of 200 μM roflumilast (to define 100% enzyme inhibition). Using a Beckman FX robot, 10 μl of [^3H] cAMP (Amersham TRK559) at […] in assay buffer (50 mM Tris, pH 7.5; 8.3 mM MgCl; 1.7 mM EGTA; 0.01% BSA) was transferred to each assay well. Next, 10 μl of PDE4 enzyme in assay buffer was added and the plates were shaken for 30 s. at 1000 rpm to start the cAMP hydrolysis reaction. The concentrations of enzyme used were: PDE4B, 80 ng/ml; PDE4D, 4 ng/ml; PDE4B2, 2.5 μl of 50% glycerol stock/ml; PDE4D5 0.083 μl of 50% glycerol stock/ml. Assay plates were covered and incubated for 30 min. at 30° C. Reactions were stopped by robotic addition of 10 μl of 5 mg/ml SPA beads (Amersham RPNQ0013) in 18 mM ZnSO4. The assay plates were covered with clear plastic film, centrifuged for 1 min. at 1000 RPM to settle the SPA beads, and counted using a Wallac TriLux scintillation counter. IC50's were calculated from the raw assay data by non-linear regression curve fitting using the Assay Explorer software package from MDL.

For experiment [2], the target named is T2, PDE4B2: full-length human PDE4B2 isozyme (Homo sapiens, UniProt Q07343).
T2 construct: made in house; host or cells: baculovirus infected insect cells (pFastBacHT)
T2 sequence (Q07343 with tags, fused parts or gaps isoform Q07343-2): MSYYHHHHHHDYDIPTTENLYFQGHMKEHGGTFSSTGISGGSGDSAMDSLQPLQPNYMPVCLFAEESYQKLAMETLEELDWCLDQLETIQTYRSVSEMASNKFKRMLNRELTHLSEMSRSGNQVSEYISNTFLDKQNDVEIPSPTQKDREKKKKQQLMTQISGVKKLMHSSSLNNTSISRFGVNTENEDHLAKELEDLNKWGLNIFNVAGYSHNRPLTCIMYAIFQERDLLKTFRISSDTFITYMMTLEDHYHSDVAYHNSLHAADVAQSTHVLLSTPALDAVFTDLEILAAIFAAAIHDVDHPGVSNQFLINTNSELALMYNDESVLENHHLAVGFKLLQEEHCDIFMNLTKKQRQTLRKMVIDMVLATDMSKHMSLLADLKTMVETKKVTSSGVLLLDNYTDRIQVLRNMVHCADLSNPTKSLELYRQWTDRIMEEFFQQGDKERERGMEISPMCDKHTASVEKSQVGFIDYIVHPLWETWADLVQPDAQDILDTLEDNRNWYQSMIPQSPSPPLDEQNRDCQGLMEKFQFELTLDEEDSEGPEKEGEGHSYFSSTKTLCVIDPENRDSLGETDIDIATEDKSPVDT
Put plainly: PDE4 IC50 determination by Scintillation Proximity Assay (SPA), full-length PDE4B2. The note with it: cell lysate, [3H]cAMP SPA. As for the experimental part:
(§3) The enzyme was not purified from the cell lysates, so enzyme concentrations were not determined. Enzyme was stored in 50% glycerol at −20°.
as §1, §2
For orientation: SPA uses beads or plates that emit light when radiolabelled molecules are held near them.

The target of experiment [3] is T3, PDE4D5: full-length human PDE4D5 isozyme (Homo sapiens, UniProt Q08499).
T3 construct: made in house; host or cells: baculovirus infected insect cells (pFastBacHT)
T3 sequence (Q08499 with tags, fused parts or gaps isoform Q08499-6): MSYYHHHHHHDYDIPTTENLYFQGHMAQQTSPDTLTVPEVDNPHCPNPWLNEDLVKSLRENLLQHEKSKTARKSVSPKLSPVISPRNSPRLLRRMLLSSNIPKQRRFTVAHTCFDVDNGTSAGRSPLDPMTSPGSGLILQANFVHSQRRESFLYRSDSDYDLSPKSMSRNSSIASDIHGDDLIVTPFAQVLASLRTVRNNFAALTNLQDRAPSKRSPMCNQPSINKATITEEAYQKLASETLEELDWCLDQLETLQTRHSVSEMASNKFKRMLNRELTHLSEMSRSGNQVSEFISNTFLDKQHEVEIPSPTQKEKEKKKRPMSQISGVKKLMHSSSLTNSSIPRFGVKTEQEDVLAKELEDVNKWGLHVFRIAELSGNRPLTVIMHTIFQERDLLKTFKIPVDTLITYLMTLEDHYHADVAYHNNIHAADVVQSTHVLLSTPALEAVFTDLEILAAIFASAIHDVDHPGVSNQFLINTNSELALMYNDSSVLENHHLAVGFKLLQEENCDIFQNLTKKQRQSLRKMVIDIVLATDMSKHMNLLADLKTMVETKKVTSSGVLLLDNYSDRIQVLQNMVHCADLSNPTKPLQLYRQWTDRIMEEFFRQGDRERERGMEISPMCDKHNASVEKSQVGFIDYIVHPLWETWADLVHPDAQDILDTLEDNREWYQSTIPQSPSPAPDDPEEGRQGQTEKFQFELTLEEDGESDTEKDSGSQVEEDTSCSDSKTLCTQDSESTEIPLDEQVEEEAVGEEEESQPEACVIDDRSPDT
The experiment in a line: PDE4 IC50 determination by Scintillation Proximity Assay (SPA), full-length PDE4D5. The note with it: cell lysate, [3H]cAMP SPA. The method, then:
as §3, §1, §2

T1 sequence (Q07343 324-700): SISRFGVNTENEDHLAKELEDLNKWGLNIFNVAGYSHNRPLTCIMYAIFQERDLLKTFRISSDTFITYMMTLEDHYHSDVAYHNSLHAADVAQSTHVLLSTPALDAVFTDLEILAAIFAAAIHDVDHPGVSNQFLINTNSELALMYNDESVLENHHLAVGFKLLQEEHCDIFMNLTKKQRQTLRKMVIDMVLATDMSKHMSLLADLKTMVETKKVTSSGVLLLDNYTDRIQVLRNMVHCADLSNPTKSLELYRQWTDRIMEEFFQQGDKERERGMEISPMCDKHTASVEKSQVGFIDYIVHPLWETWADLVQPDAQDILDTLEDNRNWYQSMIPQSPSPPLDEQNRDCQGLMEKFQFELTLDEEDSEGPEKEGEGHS

Take `COc1ncc(-c2cn(S(=O)(=O)Cc3ccccc3)c3ncccc23)cn1` [Compound 45, 3-(2-Methoxy-pyrimidin-5-yl)-1-phenylmethanesulfonyl-1H-pyrrolo[2,3-b]pyridine]: the 50% inhibitory concentration (IC50) in experiment [1], in experiment [2] and in experiment [3] was below 10 µM each time.
Take `COc1ccc(-c2cn(C(=O)Nc3ccc(F)c([N+](=O)[O-])c3)c3ncccc23)cc1OC1CCCC1` [Compound 98, 3-(3-Cyclopentyloxy-4-methoxy-phenyl)-pyrrolo[2,3-b]pyridine-1-carboxylic acid (3-nitro-4-fluoro-phenyl)-amide]: the half-maximal inhibitory concentration (IC50) in experiment [2] and in experiment [3] was below 10 µM in each case.
For `COc1ccc(-c2cn(S(=O)(=O)c3ccccc3)c3ncccc23)cc1O` [Compound 141, 5-(1-Benzenesulfonyl-1H-pyrrolo[2,3-b]pyridin-3-yl)-2-methoxy-phenol], the concentration for half-maximal inhibition (IC50) in experiment [2] and in experiment [3] was below 10 µM throughout.
As to `c1cnc2[nH]cc(-c3ccc4c(c3)OCO4)c2c1` [Compound 90, 3-Benzo[1,3]dioxol-5-yl-1H-pyrrolo[2,3-b]pyridine], the half-inhibitory concentration (IC50) in experiment [1], in experiment [2] and in experiment [3] was above 10 µM throughout.
In the case of `COc1ccc2c(c1)c(-c1ccc(OC)c(OC)c1)cn2S(=O)(=O)c1cccc2cc(C)cnc12` [Compound 94, 8-[3-(3,4-Dimethoxy-phenyl)-5-methoxy-indole-1-sulfonyl]-3-methyl-quinoline], the 50% inhibitory concentration (IC50) in experiment [2] and in experiment [3] was below 10 µM each time.
For `COc1ccc(-c2cn(C(=O)c3ccc(Cl)nc3)c3ncccc23)cc1OC` [Compound 107, (6-Chloro-pyridin-3-yl)-[3-(3,4-dimethoxy-phenyl)-pyrrolo[2,3-b]pyridin-1-yl]-methanone], the IC50 in experiment [2] and in experiment [3] was below 10 µM in each case.
Turning to `COc1ccc(-c2cn(C(=O)[C@@H]3C[C@H]3c3ccccc3)c3ncccc23)cc1OC` [Compound 108, [3-(3,4-Dimethoxy-phenyl)-pyrrolo[2,3-b]pyridin-1-yl]-((1R,2R)-2-phenyl-trans-cyclopropyl)-methanone], the IC50 in experiment [2] and in experiment [3] was below 10 µM each time.
In the case of `COc1cc(-c2cn(S(=O)(=O)c3ccccc3)c3ncccc23)ccc1OCc1cc(-c2ccccc2)no1` [Compound 125, 1-Benzenesulfonyl-3-[3-methoxy-4-(3-phenyl-isoxazol-5-ylmethoxy)-phenyl]-1H-pyrrolo[2,3-b]pyridine], the half-inhibitory concentration (IC50) in experiment [2] and in experiment [3] was below 10 µM in each case.
For `COc1ccc(-c2cn(S(=O)(=O)c3cccc4cc(C)cnc34)c3ncccc23)cc1OC` [Compound 13, 8-[3-(3,4-Dimethoxy-phenyl)-pyrrolo[2,3-b]pyridine-1-sulfonyl]-3-methyl-quinoline], the concentration for half-maximal inhibition (IC50) in experiment [1], in experiment [2] and in experiment [3] was below 10 µM throughout.
Consider `COc1ccc(-c2cn(C(=O)Nc3ccc(C(C)=O)cc3)c3ncccc23)cc1OC` [Compound 40, 3-(3,4-Dimethoxy-phenyl)-pyrrolo[2,3-b]pyridine-1-carboxylic acid (4-acetyl-phenyl)-amide], for which the IC50 in experiment [1], in experiment [2] and in experiment [3] was below 10 µM each time.
Consider `COc1ccc(-c2cn(S(=O)(=O)c3ccccc3)c3ccccc23)cc1OC` [Compound 19, 1-benzenesulfonyl-3-(3,4-dimethoxy-phenyl)-1H-indole], for which the 50% inhibitory concentration (IC50) in experiment [1], in experiment [2] and in experiment [3] was below 10 µM each time.
On to `CCOC(=O)c1ccc(NC(=O)n2cc(-c3ccc(OC)c(OC)c3)c3cccnc32)cc1` [Compound 33, 4-[3-(3,4-Dimethoxy-phenyl)-pyrrolo[2,3-b]pyridine-1-carbonyl]-amino-benzoic acid ethyl ester], for which the 50% inhibitory concentration (IC50) is below 10 µM in experiment [1], below 10 µM in experiment [2] and above 10 µM in experiment [3].
As for `CCOC(=O)c1ccc(C#Cc2cn(S(=O)(=O)c3ccccc3)c3ncc(-c4ccc(OC)c(OC)c4)cc23)cc1` [Compound 135, 4-[1-Benzenesulfonyl-5-(3,4-dimethoxy-phenyl)-1H-pyrrolo[2,3-b]pyridin-3-ylethynyl]-benzoic acid ethyl ester], the IC50 in experiment [2] is below 10 µM.
As for `Cc1[nH]c2ncccc2c1-c1ccc2c(c1)OCO2` [Compound 142, 3-Benzo[1,3]dioxol-5-yl-2-methyl-1H-pyrrolo[2,3-b]pyridine], the IC50 was below 10 µM in experiment [1], above 10 µM in experiment [2] and above 10 µM in experiment [3].
Regarding `CSc1nccc(-c2cn(S(=O)(=O)c3cccc4cccnc34)c3ncccc23)n1` [Compound 46, 8-[3-(2-Methylsulfanyl-pyrimidin-4-yl)-pyrrolo[2,3-b]pyridine-1-sulfonyl]-quinoline], the IC50 in experiment [1], in experiment [2] and in experiment [3] was below 10 µM each time.
In the case of `CCOc1ccc2ccccc2c1C(=O)n1cc(-c2ccc(O)c(OC)c2)c2cccnc21` [Compound 123, (2-Ethoxy-naphthalen-1-yl)-[3-(4-hydroxy-3-methoxy-phenyl)-pyrrolo[2,3-b]pyridin-1-yl]-methanone], the IC50 in experiment [2] and in experiment [3] was below 10 µM in each case.
In the case of `COc1ccc(-c2cn(S(=O)(=O)c3ccc(Oc4ccccc4)cc3)c3ncccc23)cc1OC` [Compound 15, 3-(3,4-Dimethoxy-phenyl)-1-(4-phenoxy-benzenesulfonyl)-1H-pyrrolo[2,3-b]pyridine], the half-maximal inhibitory concentration (IC50) in experiment [1], in experiment [2] and in experiment [3] was below 10 µM in each case.
In the case of `COc1ccc(-c2cn(S(=O)(=O)c3ccc(-c4ccccc4)cc3)c3ncccc23)cc1OC` [Compound 10, 1-(Biphenyl-4-sulfonyl)-3-(3,4-dimethoxy-phenyl)-1H-pyrrolo[2,3-b]pyridine], the IC50 in experiment [1], in experiment [2] and in experiment [3] was below 10 µM throughout.
On to `CCOc1ccc(C(=O)n2cc(-c3ccc(OC)c(OC)c3)c3cccnc32)c(OCC)c1` [Compound 111, (2,4-Diethoxy-phenyl)-[3-(3,4-dimethoxy-phenyl)-pyrrolo[2,3-b]pyridin-1-yl]-methanone], for which the IC50 in experiment [1], in experiment [2] and in experiment [3] was below 10 µM each time.
Turning to `CCOc1ccc2ccccc2c1C(=O)n1cc(-c2cccc(C(=O)OC)c2)c2cccnc21` [Compound 120, 3-[1-(2-Ethoxy-naphthalene-1-carbonyl)-1H-pyrrolo[2,3-b]pyridin-3-yl]-benzoic acid methyl ester], the half-maximal inhibitory concentration (IC50) in experiment [2] and in experiment [3] was below 10 µM throughout.
Consider `COc1ccc(CC(=O)n2cc(-c3ccc(OC)c(OC)c3)c3cccnc32)cc1` [Compound 60, 1-[3-(3,4-Dimethoxy-phenyl)-pyrrolo[2,3-b]pyridin-1-yl]-2-(4-methoxy-phenyl)-ethanone-amide], for which the IC50 in experiment [1], in experiment [2] and in experiment [3] was below 10 µM each time.
Take `COc1ccc(-c2cn(C(=O)c3ccccc3Oc3ccccc3)c3ncccc23)cc1OC` [Compound 118, [3-(3,4-Dimethoxy-phenyl)-pyrrolo[2,3-b]pyridin-1-yl]-(2-phenoxy-phenyl)-methanone]: the half-maximal inhibitory concentration (IC50) in experiment [2] and in experiment [3] was below 10 µM in each case.
In the case of `COc1ccc(-c2cn(C(=O)Nc3cccc(F)c3)c3ncccc23)cc1OC` [Compound 35, 3-(3,4-Dimethoxy-phenyl)-pyrrolo[2,3-b]pyridine-1-carboxylic acid(3-fluoro-phenyl)-amide], the concentration for half-maximal inhibition (IC50) in experiment [1], in experiment [2] and in experiment [3] was above 10 µM in each case.
For `COC(=O)c1cccc(C#Cc2cn(S(=O)(=O)c3ccccc3)c3ncc(-c4ccc(OC)c(OC)c4)cc23)c1` [Compound 137, 3-[1-Benzenesulfonyl-5-(3,4-dimethoxy-phenyl)-1H-pyrrolo[2,3-b]pyridin-3-ylethynyl]-benzoic acid methyl ester], the concentration for half-maximal inhibition (IC50) in experiment [2] and in experiment [3] was below 10 µM each time.
For `COc1ccc(-c2c[nH]c3ncccc23)cc1OCc1ccccc1` [Compound 89, 3-(3-Benzyloxy-4-methoxy-phenyl)-1H-pyrrolo[2,3-b]pyridine], the IC50 in experiment [2] and in experiment [3] was below 10 µM each time.
In the case of `COc1ccc(-c2cnc3c(c2)c(C#Cc2ccccc2)cn3S(=O)(=O)c2ccccc2)cc1OC` [Compound 136, 1-Benzenesulfonyl-5-(3,4-dimethoxy-phenyl)-3-phenylethynyl-1H-pyrrolo[2,3-b]pyridine], the half-maximal inhibitory concentration (IC50) in experiment [2] and in experiment [3] was below 10 µM each time.

A word on the IC50: it is the concentration at which inhibition is half-maximal. Low readings indicate greater potency in that assay, high ones weaker potency in that assay.
